Measured values from PMC9395446, “First-in-human phase 1/1b study to evaluate sitravatinib in patients with advanced solid tumors” (Investigational New Drugs, 2022).

Assay: Safety in phase 1/1b study (DLTs, TRAEs, TEAEs; CTCAE v4.03)
Type: in vivo, human
From the text: Safety assessments included evaluation of DLTs, AEs, physical examinations, vital sign measurements, electrocardiogram recordings and laboratory tests.
A DLT was defined as a grade ≥ 4 hematologic abnormality lasting ≥ 4 days; grade 3 thrombocytopenia with clinically significant bleeding; febrile neutropenia; clinically significant grade ≥ 3 non-hematologic AEs not related to underlying malignancy; intolerable grade 2 AEs; or toxicity resulting in an inability to deliver 80% of the dose during the first treatment cycle.
The safety population included all patients who received ≥ 1 dose of sitravatinib. […] The PK evaluable population included all patients with sufficient concentration-time data for PK parameter evaluation. The modified intent-to-treat (mITT) population included all phase 1b patients who received ≥ 1 dose of study drug.

SMILES: COCCNCc1ccc(-c2cc3nccc(Oc4ccc(NC(=O)C5(C(=O)Nc6ccc(F)cc6)CC5)cc4F)c3s2)nc1 [sitravatinib, Sitravatinib]
- Hyponatremia TEAE, grade ≥3 (120 mg phase 1b): 3 (4.8) n (%)
- Hypophosphatemia TEAE, any grade (120 mg phase 1b): 3 (4.8) n (%)
- Hypophosphatemia TEAE, grade ≥3 (120 mg phase 1b): 1 (1.6) n (%)
- Hypothyroidism TEAE, any grade (120 mg phase 1b): 19 (30.6) n (%)
- Hypothyroidism TRAE, any grade (120 mg phase 1b): 14 (22.6) n (%)
- Hypothyroidism TRAE, grade ≥3 (120 mg phase 1b): 0 n (%)
- Infections and infestations TEAE, any grade (120 mg phase 1b): 18 (29.0) n (%)
- Infections and infestations TEAE, grade ≥3 (120 mg phase 1b): 7 (11.3) n (%)
- Injury, poisoning, procedural complications TEAE, any grade (120 mg phase 1b): 11 (17.7) n (%)
- Injury, poisoning, procedural complications TEAE, grade ≥3 (120 mg phase 1b): 0 n (%)
- Investigations TEAE, any grade (120 mg phase 1b): 34 (54.8) n (%)
- Investigations TEAE, grade ≥3 (120 mg phase 1b): 7 (11.3) n (%)
- Lipase increased TEAE, any grade (120 mg phase 1b): 8 (12.9) n (%)
- Lipase increased TEAE, grade ≥3 (120 mg phase 1b): 3 (4.8) n (%)
- Metabolism and nutrition disorders TEAE, any grade (120 mg phase 1b): 38 (61.3) n (%)
- Metabolism and nutrition disorders TEAE, grade ≥3 (120 mg phase 1b): 11 (17.7) n (%)
- Musculoskeletal and connective tissue disorders TEAE, any grade (120 mg phase 1b): 28 (45.2) n (%)
- Musculoskeletal and connective tissue disorders TEAE, grade ≥3 (120 mg phase 1b): 2 (3.2) n (%)
- Nausea TEAE, any grade (120 mg phase 1b): 19 (30.6) n (%)
- Nausea TEAE, grade ≥3 (120 mg phase 1b): 0 n (%)
- Nausea TRAE, any grade (120 mg phase 1b): 14 (22.6) n (%)
- Nausea TRAE, grade ≥3 (120 mg phase 1b): 0 n (%)
- Neoplasms benign, malignant, unspecified TEAE, any grade (120 mg phase 1b): 11 (17.7) n (%)
- Neoplasms benign, malignant, unspecified TEAE, grade ≥3 (120 mg phase 1b): 8 (12.9) n (%)
- Nervous system disorders TEAE, any grade (120 mg phase 1b): 28 (45.2) n (%)
- Nervous system disorders TEAE, grade ≥3 (120 mg phase 1b): 3 (4.8) n (%)
- PPE syndrome TEAE, any grade (120 mg phase 1b): 14 (22.6) n (%)
- PPE syndrome TEAE, grade ≥3 (120 mg phase 1b): 6 (9.7) n (%)
- PPE syndrome TRAE, any grade (120 mg phase 1b): 13 (21.0) n (%)
- PPE syndrome TRAE, grade ≥3 (120 mg phase 1b): 6 (9.7) n (%)
- Pain in extremity TEAE, any grade (120 mg phase 1b): 4 (6.5) n (%)
- Pain in extremity TEAE, grade ≥3 (120 mg phase 1b): 0 n (%)
- Proteinuria TEAE, any grade (120 mg phase 1b): 13 (21.0) n (%)
- Proteinuria TEAE, grade ≥3 (120 mg phase 1b): 2 (3.2) n (%)
- Proteinuria TRAE, any grade (120 mg phase 1b): 11 (17.7) n (%)
- Proteinuria TRAE, grade ≥3 (120 mg phase 1b): 2 (3.2) n (%)
- Psychiatric disorders TEAE, any grade (120 mg phase 1b): 7 (11.3) n (%)
- Psychiatric disorders TEAE, grade ≥3 (120 mg phase 1b): 2 (3.2) n (%)
- Rash TEAE, any grade (120 mg phase 1b): 9 (14.5) n (%)
- Rash TEAE, grade ≥3 (120 mg phase 1b): 2 (3.2) n (%)
- Rash TRAE, any grade (120 mg phase 1b): 6 (9.7) n (%)
- Rash TRAE, grade ≥3 (120 mg phase 1b): 2 (3.2) n (%)
- Renal and urinary disorders TEAE, any grade (120 mg phase 1b): 19 (30.6) n (%)
- Renal and urinary disorders TEAE, grade ≥3 (120 mg phase 1b): 5 (8.1) n (%)
- Respiratory, thoracic and mediastinal disorders TEAE, any grade (120 mg phase 1b): 34 (54.8) n (%)
- Respiratory, thoracic and mediastinal disorders TEAE, grade ≥3 (120 mg phase 1b): 3 (4.8) n (%)
- Serious TEAE (120 mg phase 1b): 21 (33.9) n (%)
- Serious TRAE (120 mg phase 1b): 5 (8.1) n (%)
- Skin and subcutaneous tissue disorders TEAE, any grade (120 mg phase 1b): 33 (53.2) n (%)
- Skin and subcutaneous tissue disorders TEAE, grade ≥3 (120 mg phase 1b): 8 (12.9) n (%)
- Stomatitis TEAE, any grade (120 mg phase 1b): 11 (17.7) n (%)
- Stomatitis TEAE, grade ≥3 (120 mg phase 1b): 1 (1.6) n (%)
- Stomatitis TRAE, any grade (120 mg phase 1b): 11 (17.7) n (%)
- Stomatitis TRAE, grade ≥3 (120 mg phase 1b): 1 (1.6) n (%)
- TEAE grade ≥3 (120 mg phase 1b): 45 (72.6) n (%)
- TEAE leading to death (120 mg phase 1b): 8 (12.9) n (%)
- TEAE leading to discontinuation (120 mg phase 1b): 12 (19.4) n (%)
- TEAE leading to treatment modification (120 mg phase 1b): 46 (74.2) n (%)
- TRAE grade ≥3 (120 mg phase 1b): 32 (51.6) n (%)
- TRAE leading to death (120 mg phase 1b): 0 n (%)
- TRAE leading to discontinuation (120 mg phase 1b): 7 (11.3) n (%)
- TRAE leading to treatment modification (120 mg phase 1b): 42 (67.7) n (%)
- UTI TEAE, any grade (120 mg phase 1b): 6 (9.7) n (%)
- UTI TEAE, grade ≥3 (120 mg phase 1b): 1 (1.6) n (%)
- Vascular disorders TEAE, any grade (120 mg phase 1b): 32 (51.6) n (%)
- Vascular disorders TEAE, grade ≥3 (120 mg phase 1b): 12 (19.4) 12 (19.4) n (%)
- Vomiting TEAE, any grade (120 mg phase 1b): 12 (19.4) n (%)
- Vomiting TEAE, grade ≥3 (120 mg phase 1b): 0 n (%)
- Vomiting TRAE, any grade (120 mg phase 1b): 9 (14.5) n (%)
- Vomiting TRAE, grade ≥3 (120 mg phase 1b): 0 n (%)
- Weight decreased TEAE, any grade (120 mg phase 1b): 10 (16.1) n (%)
- Weight decreased TEAE, grade ≥3 (120 mg phase 1b): 0 n (%)
- Weight decreased TRAE, any grade (120 mg phase 1b): 7 (11.3) n (%)
- Weight decreased TRAE, grade ≥3 (120 mg phase 1b): 0 n (%)
- Patients discontinued due to TRAEs (150 mg): 17.2%
- Patients with grade ≥ 3 TRAEs (150 mg arm): 61.6%
- Patients with serious TRAEs (150 mg arm): 22.2%
- ALT increased TEAE, any grade (150 mg phase 1b): 25 (25.3) n (%)
- ALT increased TEAE, grade ≥3 (150 mg phase 1b): 3 (3.0) n (%)
